Data: the Deep4Chem optical property database

test: solvent given as SMILES; conditions: in CCOCC

| SMILES | emission maximum [nm] |
| --- | --- |
| COc1ccc(/C=C/C2=CC(/C=C/c3ccc(OC)cc3)=[O+][B-](F)(F)O2)cc1 | 497 |
| CN(C)c1ccc(C(=O)Nc2ccc([N+](=O)[O-])cc2)cc1 | 536 |

same assay, conditions: in CN(C)C=O

| SMILES | emission maximum [nm] |
| --- | --- |
| CCCCCCC(CCCCCC)N1C(=O)c2cccc3c(-c4ccc([Si](C)(C)C)cc4)ccc(c23)C1=O | 432.7 |
| Cc1ccc(C(=O)/C=C/c2ccc(N(C)C)cc2)cc1 | 528 |
| COc1cc(/C=C/C(=O)CC(=O)/C=C/c2ccc(O)c(OC)c2)ccc1O | 542 |
| CCn1c2ccccc2c2c3nsnc3c3c4ccccc4n(CC)c3c21 | 500 |
| CCc1ccc(/C=C/c2ccc(-c3nnc(-c4ccc(-c5cc6ccccc6s5)cc4)o3)cc2)cc1 | 429 |

same assay, conditions: in CO

| SMILES | emission maximum [nm] |
| --- | --- |
| CC1(C)C(/C=C/C2=C(Oc3ccc(CCN=C=S)cc3Cl)C(=C/C=C3/N(CCCS(=O)(=O)[O-])c4ccccc4C3(C)C)/CCC2)=[N+](CCCS(=O)(=O)[O-])c2ccccc21 | 797 |
| Cc1cc(C2(c3cc(C)c(O)c(Br)c3)OS(=O)(=O)c3ccccc32)cc(Br)c1O | 502 |
| Cc1ccc(C(=O)/C=C/c2ccc(N(C)C)cc2)cc1 | 533 |
| C(=C\c1c[nH]c2ccc(Oc3ccccc3)cc12)/C1=[NH+]c2cccc3cccc1c23 | 584 |
| COc1nc(Nc2ccc3c4c(cccc24)C(=O)c2ccccc2-3)nc(OC)n1 | 586.85 |
| COc1cc(/C=C/C(=O)CC(=O)/C=C/c2ccc(O)c(OC)c2)ccc1O | 560 |
| COc1ccc(-c2nc(-c3ccc(OC)cc3)c(-c3ccc(OC)cc3)[nH]2)cc1 | 389 |
| COC(=O)C([NH3+])Cc1ccc2oc(-c3ccncc3)nc2c1 (centres undefined) | 379.88 |
| COc1ccc2n1[B-](F)(F)[N+]1=C(c3ccccc3)C=CC1=C2c1ccc(C)cc1 | 550 |
| CCc1ccc(/C=C/c2ccc(-c3nnc(-c4ccc(-c5cc6ccccc6s5)cc4)o3)cc2)cc1 | 426 |

same assay, conditions: in CS(C)=O

| emission maximum [nm] | SMILES |
| --- | --- |
| 532 | CCCCn1cc(/C=C/c2cc(=O)oc3cc(C)ccc23)c2ccccc21 |
| 549 | COc1cc(/C=C/C(=O)CC(=O)/C=C/c2ccc(O)c(OC)c2)ccc1O |
| 633 | O=C(O)COc1cccc(-c2c3nc(cc4ccc([nH]4)c(-c4cccc(OCC(=O)O)c4)c4nc(cc5ccc2[nH]5)C=C4)C=C3)c1 |
| 639 | COc1ccc(-c2c3nc(cc4ccc([nH]4)c(-c4ccc(OC)c(OCCCC(=O)O)c4)c4nc(cc5ccc2[nH]5)C=C4)C=C3)cc1OCCCC(=O)O |
| 616 | C(#Cc1ncnc2ccccc12)c1ccc(N(c2ccccc2)c2ccccc2)cc1 |

| SMILES | emission maximum [nm] |
| --- | --- |
| CCc1ccc(/C=C/c2ccc(-c3nnc(-c4ccc(-c5cc6ccccc6s5)cc4)o3)cc2)cc1 | 433 |

same assay, conditions: in Cc1ccccc1

| SMILES | emission maximum [nm] |
| --- | --- |
| CCCCCCC(CCCCCC)N1C(=O)c2cccc3c(-c4ccc([Si](C)(C)C)cc4)ccc(c23)C1=O | 416.7 |
| Cc1ccc2c(c1)c1cc(Br)ccc1n2-c1c(C#N)c(-n2c3ccc(Br)cc3c3cc(Br)ccc32)c(-n2c3ccc(Br)cc3c3cc(Br)ccc32)c(C#N)c1-n1c2ccc(Br)cc2c2cc(Br)ccc21 | 546 |
| Cc1ccc2c(c1)c1cc(C)ccc1n2-c1cccc(-n2c3ccc(C)cc3c3cc(C)ccc32)c1C#N | 417 |
| CC1(C)c2ccccc2N(c2ccc(-c3ncccn3)cc2)c2ccccc21 | 448 |
| c1ccc2c(c1)CCc1ccccc1N2c1c2ccccc2c(N2c3ccccc3CCc3ccccc32)c2ccccc12 | 525 |
| Cc1ccc(C(=O)/C=C/c2ccc(N(C)C)cc2)cc1 | 477 |
| CCCCCCCCn1c2cc(/C=C/c3ccc(N(c4ccccc4)c4ccccc4)cc3)ccc2c2cc3c(cc21)c1ccc(/C=C/c2ccc(N(c4ccccc4)c4ccccc4)cc2)cc1n3CCCCCCCC | 473 |
| CC(C)(C)c1ccc2c(c1)c1cc(C(C)(C)C)ccc1n2-c1ccc(S(=O)(=O)c2ccc(-n3c4ccc(C(C)(C)C)cc4c4cc(C(C)(C)C)ccc43)nc2)cn1 | 444.37 |
| COc1nc(Nc2ccc3c4c(cccc24)C(=O)c2ccccc2-3)nc(OC)n1 | 521.92 |
| Cc1ccc(-c2c3ccc([nH]3)c3nc(c(-c4ccc(C#N)cc4)c4ccc([nH]4)c4ccc([nH]4)c(-c4ccc(C)cc4)c4ccc2o4)C=C3)cc1 | 722 |
| CCn1c2ccccc2c2c3nsnc3c3c4ccccc4n(CC)c3c21 | 470 |
| c1ccc2c(c1)CC1(C2)c2cc(N3c4ccccc4Sc4ccccc43)ccc2-c2ccc(N3c4ccccc4Sc4ccccc43)cc21 | 495 |
| COc1ccc2n1[B-](F)(F)[N+]1=C(c3ccccc3)C=CC1=C2c1ccc(C)cc1 | 558 |

same assay, conditions: in ClC(Cl)(Cl)Cl

| SMILES | emission maximum [nm] |
| --- | --- |
| COc1ccc(/C=C/C2=CC(/C=C/c3ccc(OC)cc3)=[O+][B-](F)(F)O2)cc1 | 492 |

same assay, conditions: in ClC(Cl)Cl

| SMILES | emission maximum [nm] |
| --- | --- |
| CCCCn1cc(/C=C/c2cc(=O)oc3cc(C)ccc23)c2ccccc21 | 474 |
| CCCCCCC(CCCCCC)N1C(=O)c2cccc3c(-c4ccc([Si](C)(C)C)cc4)ccc(c23)C1=O | 425.4 |
| CCCCCCCCCCCCc1sc(CCCCCCCCCCCC)c2c3ccsc3c3sccc3c12 | 425 |
| COc1ccc(-c2ccc(-c3c4c(nc5ccccc35)-c3cc5c(cc3CC4)-c3nc4ccccc4c(-c4ccc(-c6ccc(OC)cc6)cc4)c3CC5)cc2)cc1 | 388 |
| Cc1ccc(C(=O)/C=C/c2ccc(N(C)C)cc2)cc1 | 508 |
| COc1ccc2n1[B-](F)(F)[N+]1=C(c3ccccc3)C=CC1=C2c1ccc(C)cc1 | 557 |

same assay, conditions: in ClCCl

| emission maximum [nm] | SMILES |
| --- | --- |
| 391 | CCn1c2cc(-c3cccs3)ccc2c2ccc(-c3cccs3)cc21 |
| 512 | CC(C)(C)c1ccc(-c2ccc(-c3ccc(C(C)(C)C)cc3)c3nsnc23)cc1 |
| 488 | CN(C)c1ccc(/C=C/c2ccncn2)cc1 |
| 481 | CCOC(=O)c1ccc(C2CC(c3cccc4ccccc34)=NN2c2ccc(F)cc2)cc1 (centres undefined) |
| 452 | COc1ccc(-c2c3ccccc3c(C#Cc3ccccc3)c3ccccc23)cc1 |
| 627 | CCOC(=O)c1ccccc1-c1c2ccc(=[N+](CC)CC)cc-2oc2c1oc1cc(N)ccc12 |
| 455 | COc1cc(OC)cc(-c2ccc(C3=CC(c4ccccc4)=C(c4ccccc4)C3)cc2)c1 |
| 504 | N#Cc1cnc(-c2c3ccccc3c(-c3ccccc3)c3ccccc23)nc1 |
| 572 | COc1ccc(C2=C3C=C(/C=C/C(=O)OC(C)(C)C)C=[N+]3[B-](F)(F)n3cccc32)cc1 |
| 565 | C(#Cc1ncnc2ccccc12)c1ccc(N(c2ccccc2)c2ccccc2)cc1 |
| 363 | COc1ccc2c(c1)cc(C)c1c3ccccc3[nH]c21 |

The next lines start with the compound.

| SMILES | emission maximum [nm] |
| --- | --- |
| Cc1ccc(C)n1-c1cccc(C#N)c1 | 504 |
| CCn1c2ccccc2c2c3nsnc3c3c4ccccc4n(CC)c3c21 | 497 |
| COc1ccc(/C=C/C2=CC(/C=C/c3ccc(OC)cc3)=[O+][B-](F)(F)O2)cc1 | 538 |
| O=C1OC(=O)C2=C1[Se][C@]13C2=C[C@H](c2ccccc21)c1ccccc13 | 517 |

same assay, conditions: in Clc1ccccc1

| SMILES | emission maximum [nm] |
| --- | --- |
| COc1nc(Nc2ccc3c4c(cccc24)C(=O)c2ccccc2-3)nc(OC)n1 | 526.87 |

same assay, conditions: in N#Cc1ccccc1

| SMILES | emission maximum [nm] |
| --- | --- |
| COc1nc(Nc2ccc3c4c(cccc24)C(=O)c2ccccc2-3)nc(OC)n1 | 535.91 |

same assay, conditions: in O

| emission maximum [nm] | SMILES |
| --- | --- |
| 645 | CCOC(=O)c1ccccc1-c1c2ccc(=[N+](CC)CC)cc-2oc2c1oc1cc(N)ccc12 |
| 402.82 | COC(=O)C([NH3+])Cc1ccc2oc(-c3ccncc3)nc2c1 (centres undefined) |

same assay, conditions: in O=C1CCCCC1

| SMILES | emission maximum [nm] |
| --- | --- |
| COc1nc(Nc2ccc3c4c(cccc24)C(=O)c2ccccc2-3)nc(OC)n1 | 531.91 |

same assay, conditions: in O=P(c1ccccc1)(c1ccccc1)c1ccc2oc3ccc(P(=O)(c4ccccc4)c4ccccc4)cc3c2c1

| SMILES | emission maximum [nm] |
| --- | --- |
| CC1(C)c2ccccc2N(c2ccc(-c3ncccn3)cc2)c2ccccc21 | 457 |

same assay, conditions: in O=P(c1ccccc1)(c1ccccc1)c1ccc2sc3cccc(P(=O)(c4ccccc4)c4ccccc4)c3c2c1

| SMILES | emission maximum [nm] |
| --- | --- |
| CC(C)(C)c1ccc2c(c1)c1cc(C(C)(C)C)ccc1n2-c1ccc(S(=O)(=O)c2ccc(-n3c4ccc(C(C)(C)C)cc4c4cc(C(C)(C)C)ccc43)nc2)cn1 | 467 |

same assay, conditions: in O=P(c1ccccc1)(c1ccccc1)c1ccccc1Oc1ccccc1P(=O)(c1ccccc1)c1ccccc1

| SMILES | emission maximum [nm] |
| --- | --- |
| Cc1ccc2c(c1)c1cc(C)ccc1n2-c1cccc(-n2c3ccc(C)cc3c3cc(C)ccc32)c1C#N | 432 |

same assay, conditions: in c1ccccc1

| SMILES | emission maximum [nm] |
| --- | --- |
| Cc1ccc(C(=O)/C=C/c2ccc(N(C)C)cc2)cc1 | 473 |
| Cc1ccc(-c2c3ccc([nH]3)c3nc(c(-c4ccc(C#N)cc4)c4ccc([nH]4)c4ccc([nH]4)c(-c4ccc(C)cc4)c4ccc2o4)C=C3)cc1 | 722 |
| COc1cc(/C=C/C(=O)CC(=O)/C=C/c2ccc(O)c(OC)c2)ccc1O | 464 |
